Counter-ions that a name gives are not always drawn.
Each compound was assayed on mushroom tyrosinase (polyphenol oxidase) Sigma T3824 (assay: Testing of polymer production in enzymatic tyrosinase (polyphenol oxidase) reaction). Conditions: approx. 50 mM potassium phosphate buffer pH 6.5, approx. 5 mM substrate, 100 to 10,000 units enzyme, observed over 24 hours.
Type: biochemical
Design: key: +++: Reacted within about 1 hour; ++: reacted within about 3 hours; +: reacted within about 24 hours; +/−: inconclusive results; −: no reaction
Procedure: All reactions were carried out in approximately 50 mM potassium phosphate buffer, pH 6.5 with approximately 5 mM substrate and mushroom tyrosinase (polyphenol oxidase) Sigma T3824 in an amount of 100 to 10,000 units. Reaction volumes varied from 200 μl to 2 ml. In cases where substrates were not completely solubilized, then a saturated solution was used as the limit of solubility. In some cases, a solution of DMSO was used to increase solubility of the substrates. […] The reactions were observed over a 24 hour period for the production of polymers, and the presence and color of polymer and solution was recorded.
The production of polymers in each reaction was visible as a precipitate in the well of a 96 well plate or in the reaction mixture on a glass slide.

| Compound | Result (polymer production in tyrosinase reaction) |
| --- | --- |
| c1ccc2[nH]ccc2c1 [Indole] | − |
| N[C@@H](Cc1ccc(O)cc1)C(=O)O [Tyrosine] | ++ (reacted within about 3 hours) |
| NCCc1ccc(O)cc1 [Tyramine] | +++ (Reacted within about 1 hour) |
| CN[C@@H](Cc1ccc(O)cc1)C(=O)O [N-methyl tyrosine] | ++ (reacted within about 3 hours) |
| Oc1ccc2cc(O)ccc2c1 [2,6 dihydroxnaphthalene] | + (reacted within about 24 hours) |
| Cl.NCCc1ccccc1 [Beta phenylethylamine HCL] | +/− |
| Cl.NCCc1ccc(O)cc1 [Tyramine HCl] | +++ (Reacted within about 1 hour) |
| Oc1ccc2[nH]ccc2c1 [5-hydroxyindole] | +++ (Reacted within about 1 hour) |
| Oc1ccc2cc[nH]c2c1 [6 Hydroxyindole] | ++ (reacted within about 3 hours) |

Same assay, conditions: as E1, substrate (or a marked component) dissolved in 20% DMSO

| Compound | Result (polymer production in tyrosinase reaction) |
| --- | --- |
| Oc1ccc(-c2cc(-c3ccc(O)cc3)cc(-c3ccc(O)cc3)c2)cc1 [1,3,5 Tris(4hydroxyphenyl)benzene] | + (reacted within about 24 hours) |
| CC1=NCCc2c1[nH]c1cc(O)ccc21 [Harmalol HCl dehydrate] | − |
| Oc1ccc2c(c1)[nH]c1ccccc12 [2 Hydroxy carbazole] | − |

From patent US9193819B2, “Polymers, substrates, methods for making such, and devices comprising the same” (Avertica, Inc., priority 2013, dated 2015)
